In patent US4042695A, “Thiaxanthene derivatives, compositions thereof and methods of treating therewith” (priority 1972, dated 1977):
Structures can show the parent of a compound that is named as a salt. Where two headings read alike, the source gives them in different places.

What was measured:
[1] = test system: NMRI male mice; assay: Methylphenidate antagonism in mice; assay type: in vivo; details: for ED50: Mus musculus, ip
Protocol: 1. As animals were used NMRI male mice weighing 18-25 grams.
3 × 2 or 5 × 2 mice are used for each dose level. Thirty minutes, 1 hour, 2 hours, 3 hours etc. after i.p. injection of test substance, methylphenidate, 60 mg/kg, is injected s.c. At each time interval separate groups of mice were used. After administration of methylphenidate the mice are placed in the observation cages, 2 in each cage, where they remain for 1 hour. The cages are placed on corrugated paper, the corrugations facing upwards. It is examined whether or not the mice have been biting the corrugated paper. […] The peak effect was determined for the test substances and also for a number of known neuroleptics.

[2] = test system: male Wistar rats; assay: Catalepsy-inducing effect in rats; assay type: in vivo; details: catalepsy (rats) / methylphenidate antagonism peak effect (mice)
Protocol: (§1) Reference is made to L. Juluo: "On the Interaction between Neuroleptics and Antiparkinson Drugs." Modern Problems of Pharmacopsychiatry, vol. 5, pg, 50-54. The test may be described as follows:
(§2) Five animals are used at each dose level.
(§3) The test compound is injected subcutaneously (s.c.)
(§4) Injection volume is 5 ml of the vehicle/kg b.w.
(§5) Except when otherwise stated saline is used as vehicle.
(§6) The animals are placed in the middle of a vertical wire netting (50 cm/49 cm) 60, 120, 180, 240, 300 and 360 minutes after injection of the test compound.
(§7) The animals are considered cataleptic when they remain immobile during a period of 15 seconds. This cataleptic reaction is designated: + (plus). Untreated animals climb normally up and down the wire netting. The absence of catalepsy is designated: - (minus). The results are expressed as fractions as follows: 0/5, 1/5, 2/5, 3/5, 4/5 and 5/5 in which 0, 1, 2, 3,4 and 5 represent the number of cataleptic animals out of five animals tested.

[3] = Catalepsy-inducing effect in rats; assay type: in vivo, male Wistar rats; details: rat, in vivo, sc
Protocol: as §1, §2, §3, §4, §5, §6, §7

[4] = test system: rats; assay: Antagonism of amphetamine-induced stereotyped behaviour in rats; assay type: in vivo
Protocol: The modification used by us was as follows:
The animals were then placed in individual cages. […] The absence of stereotypy was interpreted as a drug effect. ED50 values for protection against stereotypy were determined. All compounds were tested at a minimum of three dose levels using 10 rats per dose, and the observer was kept unaware of the identity of the groups until after the experiment.

[5] = test system: adult purebred Beagle dogs; assay: Apomorphine antagonism in dogs; assay type: in vivo
Text: Especially when testing esters of the compounds of Formula I it has been found advantageous to use the wellrecognized test which is based upon the fact that strong neuroleptics antagonize apomorphine induced vomiting in dogs. The test is described by P. A. J. Janssen, C. J. E. Niemegeers and K. H. L. Schellehaus: "Is it possible to predict the clinical effects of neuroleptic drugs (major tranquillizers) from animal data" ?, Part II, Arzneimittel Forschung, 15, 1196-1206, 1965. In order to evaluate esters of the compounds of Formula I a modified method is described by M. Nymark et al. in Acta pharmacol. et toxicol. 1973, 33, 363-376. The test may be described shortly as follows:
As animals were used adult purebred Beagle dogs of either sex. The threshold-dose of apomorphine hydrochloride for the induction of vomiting in the dogs has been determined to be 0.025 mg/kg intravenously. After this dose vomiting occurs within a few minutes of the injection. Four dogs were used for each dose level of the drug, which was injected subcutaneously at the back of the neck. At different times after the drug administration the dogs were then challenged with apomorphine according to an "up-and-down" schedule using the dose-range 0.025- 0.400 mg/kg intravenously geometrically spaced. […] In this way it was possible to estimate at which level of apomorphine the dogs were protected at a given time. The dogs were fed half an hour before testing to ensure an easy vomiting.

[6] = pure α-isomers of known neuroleptics; cited from earlier work
[7] = mice, i.p., peak effect, methylphenidate 60 mg/kg s.c., read-out: Methylphenidate antagonism, peak effect ED50
[8] = rats, s.c., dose producing catalepsy in 50% of the animals, read-out: Catalepsy ED50 max.
[9] = mice, i.p., 24 h after injection, read-out: Methylphenidate antagonism ED50, 24 h
[10] = read-out: Methylphenidate antagonism, peak effect ED50

Structure (SMILES) | ED50 [1, 7] [mg/kg] | Ratio Cat./Meth (catalepsy/methylphenidate antagonism) [2] | ED50 [3, 8] [mg/kg] | ED50 [1, 9] [mg/kg] | further results
OCCN1CCN(CCCC2c3cc(C(F)(F)F)ccc3Sc3c(Cl)cccc32)CC1 (stereo not drawn) [Substance 9, reference compound] | 14 | 1.5 | > 20 |  | 
CCCCCCCCCCCCCCCCCCCCCC(=O)OCCC1CCN(CCC=C2c3ccc(F)cc3Sc3ccc(C(F)(F)F)cc32)CC1 [behenic acid ester of Lu 12-331, behenic acid ester of the alpha-isomer of 2-trifluoromethyl-6-fluoro-9-(3-(4-(2-hydroxyethyl)-1-piperidyl)propylidene)-thiaxanthene] |  |  |  |  | duration of protection against amphetamine-induced stereotypies ([4]; 5 mg/kg s.c.): 21 days; sedation ([4]; 5 mg/kg s.c.): hardly any sedation; sedation compared with the palmitic acid ester ([5]; 1 mg/kg subcutaneously as Lu 12-331, first week): less sedation in the first week; duration of maximal protection ([5]; 1.6 mg/kg s.c. of ester): 15 days; time after which the effect had disappeared ([5]; 1.6 mg/kg s.c. of ester): 26 days; maximal protection against apomorphine ([5]; 1.6 mg/kg s.c. of ester ~ 1 mg/kg of Lu 12-331): 16 × threshold dose of apomorphine; protection against apomorphine 21 days after the injection ([5]; 1.6 mg/kg s.c. of ester, 21 days): ~ 12 × threshold dose; sedation ([5]; 1.6 mg/kg s.c. of ester, at any time): No sedation
OCCN1CCN(CCCC2c3cc(C(F)(F)F)ccc3Sc3c2cccc3C(F)(F)F)CC1 (stereo not drawn) [Substance 10, reference compound] | > 10 |  | > 20 |  | 
CN1CCN(CC/C=C2/c3ccccc3Sc3ccc(S(=O)(=O)N(C)C)cc32)CC1 [Thiothixene, reference compound] | 0.4 | 0.14 |  | > 40 | activity of the α-isomer relative to the β-isomer (in words) [6]: most active isomers; ED50 [3]: 0.06 mg/kg
CCCCCCCCCCCCCCCC(=O)OCCC1CCN(CCC=C2c3ccc(F)cc3Sc3ccc(C(F)(F)F)cc32)CC1 [palmitic acid ester of Lu 12-331, palmitic acid ester of the alpha-isomer of 2-trifluoromethyl-6-fluoro-9-(3-(4-(2-hydroxyethyl)-1-piperidyl)propylidene)-thiaxanthene] |  |  |  |  | sedation ([4]; 2-5 mg/kg s.c.): pronounced sedation lasting for several days
CN1CCN(CCCC2c3ccc(F)cc3Sc3ccc(S(=O)(=O)N(C)C)cc32)CC1 (stereo not drawn) [Substance 4, 2-dimethylsulfamoyl-6-fluoro-9-(3-(4-methylpiperazine-1-yl)propyl)-thiaxanthene] | 1 | 3.1 | 3.1 | > 5 | 
OCCN1CCN(CCCC2c3ccc(C(F)(F)F)cc3Sc3ccc(C(F)(F)F)cc32)CC1 (stereo not drawn) [Substance 11, reference compound] | > 10 |  | > 20 |  | 
CN1CCN(CCC=C2c3ccc(F)cc3Sc3ccc(S(=O)(=O)N(C)C)cc32)CC1 [Substance 5, 2-dimethylsulfamoyl-6-fluoro-9-(3-(4-methylpiperazine-1-yl)propylidene)-thiaxanthene] | 0.4 | 2.5 | 1 | > 10 | duration of peak effect ([1]; mice, i.p.): > 5 h
OCCC1CCN(CCC=C2c3ccc(F)cc3Sc3ccc(C(F)(F)F)cc32)CC1 [Substance 13] |  |  | 0.05 |  | ED50 ([1]; 24 h, read-out: Methylphenidate antagonism ED50, 24 h): 0.03 mg/kg; ED50 [1, 10]: 0.03 mg/kg
OCCN1CCN(CCCC2c3ccc(F)cc3Sc3ccc(Cl)cc32)CC1 (stereo not drawn) [Substance 3, 2-chloro-6-fluoro-9-(3-(4-(2-hydroxyethyl)-1-piperazinyl)propyl)-thiaxanthene] | 0.8 | 3.4 | 2.7 | 7.1 | duration of peak effect ([1]; mice, i.p.): > 5 h
CN1CCN(CCCC2c3ccc(F)cc3Sc3ccc(C(F)(F)F)cc32)CC1 (stereo not drawn) [Substance 2, 2-trifluoromethyl-6-fluoro-9-(3-(4-methyl-1-piperazinyl)propyl)thiaxanthene] | 0.3 | 10 | 3.1 | > 10 | duration of peak effect ([1]; mice, i.p.): > 5 h
OCCN1CCN(CC/C=C2/c3ccccc3Sc3ccc(Cl)cc32)CC1 [α-Clopenthixol, reference compound] | 0.7 | 0.7 |  | > 40 | activity of the α-isomer relative to the β-isomer (in words) [6]: most active isomers; duration of peak effect ([1]; mice, i.p.): 5 h; ED50 [3]: 0.45 mg/kg
OCCC1CCN(CCC=C2c3ccc(F)cc3Sc3ccc(Cl)cc32)CC1 [Substance 15, 2-chloro-6-fluoro-9-(3-(4-(2-hydroxyethyl)piperidin-1-yl)propylidene)thiaxanthene] | 0.08 | 0.9 | 0.07 | 0.27 | 
OCCC1CCN(CCCC2c3ccc(F)cc3Sc3ccc(C(F)(F)F)cc32)CC1 (stereo not drawn) [Substance 14, 2-Trifluoromethyl-6-fluoro-9-(3-(4-(2-hydroxyethyl)-1-piperidyl)propyl)-thiaxanthene] | 0.25 | 0.8 | 0.21 | 3.6 | 
CCCCCCCCCC(=O)OCCN1CCN(CC/C=C2/c3ccccc3Sc3ccc(C(F)(F)F)cc32)CC1 [reference compound] |  |  |  |  | day after the injection on which the effect had disappeared ([5]; 2 mg/kg s.c.): 11 days; degree of protection against apomorphine ([5]; 2 mg/kg s.c.): 3 × threshold dose
OCCN1CCN(CCC=C2c3ccc(F)cc3Sc3ccc(C(F)(F)F)cc32)CC1 [Substance 6] | 0.05 |  | 0.12 | 0.24 | 
OCCN1CCN(CCC=C2c3ccc(F)cc3Sc3ccc(Cl)cc32)CC1 [Substance 7] | 0.4 | 5 | 2 | > 10 | duration of peak effect ([1]; mice, i.p.): > 5 h
CN(C)CCCN1c2ccccc2Sc2ccc(Cl)cc21 [chlorpromazine, reference compound] |  | 1.0 |  |  | ED50 [1, 10]: 4 mg/kg; ED50 [3]: 4 mg/kg
OCCN1CCN(CC/C=C2/c3ccccc3Sc3ccc(C(F)(F)F)cc32)CC1 [α-Flupenthixol, reference compound] | 0.07 | 1.74 |  | 17 | activity of the α-isomer relative to the β-isomer (in words) [6]: most active isomers; duration of peak effect ([1]; mice, i.p.): 6 h; ED50 [3]: 0.12 mg/kg
CN1CCc2cccc3c2[C@H]1Cc1ccc(O)c(O)c1-3 [apomorphine hydrochloride, reference compound] |  |  |  |  | minimal effective dose ([5]; Canis lupus familiaris, iv, intravenously, read-out: threshold-dose for the induction of vomiting): 0.025 mg/kg
OCCN1CCN(CCCC2c3ccc(Cl)cc3Sc3ccc(C(F)(F)F)cc32)CC1 (stereo not drawn) [Substance 8, reference compound] | 4 | > 5 | > 20 |  | 
CN(C)S(=O)(=O)c1ccc2c(c1)C(=CCCN1CCC(CCO)CC1)c1ccc(F)cc1S2 [Substance 12, 2-Dimethylsulfamoyl-6-fluoro-9-(3-(4-(2-hydroxyethyl)-1-piperidyl)propylidene)-thiaxanthene] | 0.87 | 0.8 | 0.69 | > 10 | 
OCCN1CCN(CCCC2c3ccc(F)cc3Sc3ccc(C(F)(F)F)cc32)CC1 (stereo not drawn) [Substance 1] | 0.04 |  |  | 1.66 | ED50 [3]: 0.9 mg/kg
